Source: US20070275948A1, “7-[4-(4-Chlorobenzyloxy)Benzenesulfonyl]-8-Methoxy-3-Methyl-2,3,4,5-Tetrahydro-1h-3-Benzazepinium Maleate Or Tosylate As antipyschotics” (priority 2003, published 2007)

Experiments:
[1] = Hygroscopicity / solid-state stability to humidity; details: for stability with respect to hygroscopicity and loss of water / changes when exposed to very high humidity: anhydrates; for stability over the free base and over the hydrochloride salt, particularly with respect to hygroscopicity: compared with free base and hydrochloride salt
[2] = target: dopamine D3 receptor (Homo sapiens, UniProt P35462); test: Affinity for dopamine D3 receptor; format: binding; details: for affinity for dopamine D3 relative to D2 receptors: D3 versus D2
[3] = target: dopamine D2 receptor (Homo sapiens, UniProt P14416); test: Affinity for dopamine D2 receptor; format: binding
[4] = target: T1, serotonin 5-HT2C receptor (Homo sapiens, UniProt P28335); test: Antagonist affinity for serotonin 5-HT2C receptor; format: binding
T1 sequence (P28335 33-458): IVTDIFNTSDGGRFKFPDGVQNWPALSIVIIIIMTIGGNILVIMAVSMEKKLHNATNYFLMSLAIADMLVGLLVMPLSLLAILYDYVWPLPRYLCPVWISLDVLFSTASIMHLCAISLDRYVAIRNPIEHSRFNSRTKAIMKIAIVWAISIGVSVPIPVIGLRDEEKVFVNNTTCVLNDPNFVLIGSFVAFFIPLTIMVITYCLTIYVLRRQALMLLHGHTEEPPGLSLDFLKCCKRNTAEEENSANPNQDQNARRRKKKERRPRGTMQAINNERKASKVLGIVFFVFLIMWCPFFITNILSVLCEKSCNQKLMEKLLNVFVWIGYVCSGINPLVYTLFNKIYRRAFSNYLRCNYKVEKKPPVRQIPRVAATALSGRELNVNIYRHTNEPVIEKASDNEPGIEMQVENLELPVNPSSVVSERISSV

dopamine D3 receptor, sequence (P35462 whole entry, species assumed): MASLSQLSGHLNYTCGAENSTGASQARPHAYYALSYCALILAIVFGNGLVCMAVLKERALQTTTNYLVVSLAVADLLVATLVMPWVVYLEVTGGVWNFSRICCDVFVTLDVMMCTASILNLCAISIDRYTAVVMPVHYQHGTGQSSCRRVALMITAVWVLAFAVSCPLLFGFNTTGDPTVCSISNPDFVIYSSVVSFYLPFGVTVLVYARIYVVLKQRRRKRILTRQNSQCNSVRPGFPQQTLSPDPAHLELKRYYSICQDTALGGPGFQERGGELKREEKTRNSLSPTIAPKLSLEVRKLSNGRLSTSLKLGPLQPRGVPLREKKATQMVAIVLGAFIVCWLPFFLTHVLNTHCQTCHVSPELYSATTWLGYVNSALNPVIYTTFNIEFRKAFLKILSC
dopamine D2 receptor, sequence (P14416 whole entry): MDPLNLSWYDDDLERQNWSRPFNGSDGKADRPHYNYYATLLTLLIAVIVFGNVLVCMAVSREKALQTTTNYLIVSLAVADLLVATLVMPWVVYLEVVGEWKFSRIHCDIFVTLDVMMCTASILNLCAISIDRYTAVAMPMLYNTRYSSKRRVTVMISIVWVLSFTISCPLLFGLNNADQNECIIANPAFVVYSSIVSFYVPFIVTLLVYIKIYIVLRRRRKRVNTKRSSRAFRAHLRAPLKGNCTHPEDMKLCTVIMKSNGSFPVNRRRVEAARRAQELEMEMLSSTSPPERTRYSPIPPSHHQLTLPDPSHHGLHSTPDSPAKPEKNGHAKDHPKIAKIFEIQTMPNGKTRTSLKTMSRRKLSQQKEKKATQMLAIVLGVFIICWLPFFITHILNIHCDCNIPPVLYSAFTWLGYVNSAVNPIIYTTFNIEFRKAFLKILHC

Structure (SMILES)	hygroscopicity ([1]; multiple forms, all of those tested)	affinity for dopamine D3 receptors [2]	affinity for dopamine D3 relative to D2 receptors [2]	affinity for dopamine D2 receptors [3]	antagonist affinity for the serotonin 5-HT2C receptor [4]	stability with respect to hygroscopicity and loss of water [1]	changes when exposed to very high humidity [1]	stability over the free base and over the hydrochloride salt, particularly with respect to hygroscopicity [1]
COc1cc2c(cc1S(=O)(=O)c1ccc(OCc3ccc(Cl)cc3)cc1)CCN(C)CC2 [free base, 7-[4-(4-chlorobenzyloxy)benzenesulfonyl]-8-methoxy-3-methyl-2,3,4,5-tetrahydro-1H-3-benzazepine]	hygroscopic	–	–	–	–	–	–	–
COc1cc2c(cc1S(=O)(=O)c1ccc(OCc3ccc(Cl)cc3)cc1)CCN(C)CC2.O=C(O)/C=C\C(=O)O [maleate, 7-[4-(4-chlorobenzyloxy)benzenesulfonyl]-8-methoxy-3-methyl-2,3,4,5-tetrahydro-1H-3-benzazepinium maleate]	–	exhibit affinity	greater affinity for dopamine D3 than for D2 receptors	exhibit affinity	antagonist affinity	particular stability	reversible changes	improved stability
COc1cc2c(cc1S(=O)(=O)c1ccc(OCc3ccc(Cl)cc3)cc1)CCN(C)CC2.Cc1ccc(S(=O)(=O)O)cc1 [tosylate, 7-[4-(4-Chlorobenzyloxy)benzenesulfonyl]-8-methoxy-3-methyl-2,3,4,5-tetrahydro-1H-3-benzazepinium p-toluenesulfonate]	–	exhibit affinity	greater affinity for dopamine D3 than for D2 receptors	exhibit affinity	antagonist affinity	particular stability	reversible changes	improved stability
